Experimental data reported in the NIST ThermoML archive (doi:10.1016/j.fluid.2014.06.029).
Numbers after ± are expanded uncertainties.

Details: Liquid, Ebulliometric method (Recirculating still)

SMILES | vapor or sublimation pressure (283.15 K) | vapor or sublimation pressure (293.15 K) | vapor or sublimation pressure (303.15 K) | vapor or sublimation pressure (313.15 K) | vapor or sublimation pressure (323.15 K)
COC [dimethyl ether] | 372 ± 10 kPa | 501 ± 10 kPa | 687 ± 10 kPa | 898 ± 10 kPa | 1116.2 ± 10 kPa
CI [iodomethane] | 30 ± 10 kPa | 47.5 ± 10 kPa | 69.9 ± 10 kPa | 95 ± 10 kPa | 129 ± 10 kPa
